Assays:
[1] = Phase 1 study, removal of solriamfetol by 4-hour hemodialysis in ESRD; format: in vivo, human
Experimental: (§1) Groups 1-4 received one dose of solriamfetol HCl (89.3 mg; equivalent to 75-mg solriamfetol) on day 1; Group 5 received one dose equivalent to 75-mg dose on day 1 followed by 4-hour hemodialysis (designated Group 5.2), and one dose equivalent to 75-mg solriamfetol on day 8 without hemodialysis (designated Group 5.1). All doses were administered on an empty stomach following an overnight fast except for participants in Group 5, who received a standardized snack on day 7 and breakfast early on day 8 before starting an 8-hour fast. Participants remained fasting for 4 hours after administration, with water allowed except for 1 hour before and after dosing.
Urine samples were collected predose and for the time intervals of 0-4, 4-8, 8-12, 12-24, and 24-48 hours in Groups 1-3, with additional collection for the 48-72 hour time interval in Groups 4 and 5. During the hemodialysis period on day 1 for Group 5, dialysate samples and pre- and post-dialyzer paired blood samples were collected at pre-dialysis (2 hours), and at 3, 4, 5, and 6 hours following dosing. […]
Bioanalytical analyses were performed by a central laboratory (KCAS, LLC, Shawnee, Kansas) using validated proprietary methods that included extraction/derivatization and liquid chromatography-tandem mass spectrometry (LC-MS/MS). […] Assay performance was monitored by spiking blank interference free human plasma with positive controls and internal standards to generate standard curve and quality control samples. […] Quantification was based on setting a calibration graph using the internal standard method. […]
The following plasma PK parameters were evaluated using non-compartmental analysis in Phoenix® WinNonlin® Version 6.3: Cmax; time to reach Cmax following drug administration (tmax); t½; area under the plasma concentration-time curve from time zero to time of last quantifiable concentration (AUCt); AUC from time zero to infinity (AUC∞); apparent total clearance of the drug from plasma after oral administration (CL/F); and apparent volume of distribution (Vd/F). […]

[2] = Phase 1 single-dose study, safety (treatment-emergent adverse events); format: in vivo, human
Experimental: In healthy subjects with normal renal function, solriamfetol HCl is renally excreted ~90% unchanged within 48 hours of administration. Thus, renal impairment, as well as hemodialysis in individuals with end-stage renal disease (ESRD), could affect the PK of solriamfetol HCl. To ascertain the precise impact of renal impairment and hemodialysis on pharmacokinetics and safety of solriamfetol RCl, a Phase 1, parallel-group, open-label, single-dose study was conducted at 2 U.S. sites. The protocol was approved by the IntegReview Institutional Review Board (Austin, Texas), and the study was conducted in compliance with the protocol, the Guideline for Good Clinical Practice E6; the US Code of Federal Regulations pertaining to conduct and reporting of clinical studies; the Clinical Trials Directive of the European Medicines Agency (Directive 2001/20/EC); and the Declaration of Helsinki. Written informed consent was obtained from each subject before enrollment in the study and before performance of any study-related procedure. See, also, Zomorodi K, Chen D, Lee L, Lasseter K, Marbury T. An Open-Label, Single-Dose, Phase 1 Study of the Pharmacokinetics and Safety of JZP-110 in Subjects With Normal or Impaired Renal Function and With End-Stage Renal Disease Requiring Hemodialysis [abstract]. Sleep. 2017;40 (suppl):A382-383.
Eligible participants were assigned to 1 of 5 groups according to renal disease status as measured by the estimated glomerular filtration rate (eGFR) on the day prior to dosing, calculated using the Modification in Diet in Renal Disease equation. Group 1 consisted of healthy participants with normal renal function (eGFR ≥ 90 mL/min/1.73 m^2) and served as the control group. Groups 2, 3, and 4 had mild, moderate, and severe renal impairment based on eGFRs of 60-89, 30-59, and < 30 mL/min/1.73 m^2, respectively. Group 5 consisted of participants with ESRD who required ≥ 3 hemodialysis treatments per week for the preceding 3 months. […] Group 1 was enrolled last to facilitate matching the mean age, BMI, and sex distribution of Groups 2-5.
as §1

[3] = Group 1 normal renal function (n = 6), single 75-mg dose
[4] = Group 2 mild renal impairment (n = 6), single 75-mg dose
[5] = Group 3 moderate renal impairment (n = 6), single 75-mg dose
[6] = Group 4 severe renal impairment (n = 6), single 75-mg dose
[7] = Group 5.1 ESRD without hemodialysis (n = 6), single 75-mg dose
[8] = Group 5.2 ESRD with hemodialysis (n = 7), single 75-mg dose

SMILES: NC(=O)OC[C@H](N)Cc1ccccc1 [solriamfetol, [R]-2-amino-3-phenylpropylcarbamate]
- hemodialysis clearance, lower than renal clearance in normal renal function [1]: approximately 30%
- clearance ([1]; both sexes, human, dialysate, oral, 75 mg, day 1): 207 mL/min
- cumulative fraction of the 75-mg dose removed over the 4-hour hemodialysis period, mean ([1]; day 1): 20.6%
- aspartate aminotransferase (AST), increase to ([2]; 1 participant, Group 5, 6 days after dosing, reference range 8-40 IU/L): 66 IU/L
- alanine aminotransferase (ALT), increase to ([2]; 1 participant, Group 5, 6 days after dosing, reference range 8-54 IU/L): 144 IU/L
- ALT increased, number (%) of participants [2, 3]: 0
- AST increased, number (%) of participants [2, 3]: 0
- Any TEAE, number (%) of participants [2, 3]: 0
- Headache, number (%) of participants [2, 3]: 0
- Nausea, number (%) of participants [2, 3]: 0
- Skin abrasion, number (%) of participants [2, 3]: 0
- ALT increased, number (%) of participants [2, 4]: 0
- AST increased, number (%) of participants [2, 4]: 0
- Any TEAE, number (%) of participants [2, 4]: 1 (17%)
- Headache, number (%) of participants [2, 4]: 0
- Nausea, number (%) of participants [2, 4]: 0
- Skin abrasion, number (%) of participants [2, 4]: 1 (17%)
- ALT increased, number (%) of participants [2, 5]: 0
- AST increased, number (%) of participants [2, 5]: 0
- Any TEAE, number (%) of participants [2, 5]: 1 (17%)
- Headache, number (%) of participants [2, 5]: 1 (17%)
- Nausea, number (%) of participants [2, 5]: 0
- Skin abrasion, number (%) of participants [2, 5]: 0
- ALT increased, number (%) of participants [2, 6]: 0
- AST increased, number (%) of participants [2, 6]: 0
- Any TEAE, number (%) of participants [2, 6]: 0
- Headache, number (%) of participants [2, 6]: 0
- Nausea, number (%) of participants [2, 6]: 0
- Skin abrasion, number (%) of participants [2, 6]: 0
- ALT increased, number (%) of participants [2, 7]: 0
- AST increased, number (%) of participants [2, 7]: 0
- Any TEAE, number (%) of participants [2, 7]: 1 (17%)
- Headache, number (%) of participants [2, 7]: 0
- Nausea, number (%) of participants [2, 7]: 1 (17%)
- Skin abrasion, number (%) of participants [2, 7]: 0
- ALT increased, number (%) of participants [2, 8]: 1 (14%)
- AST increased, number (%) of participants [2, 8]: 1 (14%)
- Any TEAE, number (%) of participants [2, 8]: 1 (14%)
- Headache, number (%) of participants [2, 8]: 0
- Nausea, number (%) of participants [2, 8]: 0
- Skin abrasion, number (%) of participants [2, 8]: 0
- participants reporting treatment-emergent adverse events, total ([2]; all groups, 31 participants (13%)): 4
- deaths or other serious AEs ([2]; all groups, single 75-mg dose): no deaths or other serious AEs
- severity of all TEAEs as considered by the investigator ([2]; all groups, single 75-mg dose): mild
- vital sign and ECG measurements ([2]; all groups, single 75-mg dose): No clinically significant abnormal findings
